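Cells were grown in 96-well plates and exposed to each compound for 48 hours at five concentrations; endpoints were interpolated linearly between bracketing concentrations, or set to the highest concentration if not reached. Definition used: TGI = concentration required for complete inhibition of growth.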
Experiments:
Assay in all cases: inhibition of tumour cell growth, NCI panel, 48 h
[1] = tested on: SK-MEL-28 melanoma
[2] = tested on: PC-3 prostate
[3] = tested on: M14 melanoma
[4] = tested on: A498 renal
[5] = tested on: MDA-N
[6] = tested on: CAKI-1 renal
[7] = tested on: OVCAR-3 ovarian
[8] = tested on: SF-295 CNS
[9] = tested on: UACC-257 melanoma
[10] = tested on: NCI/ADR-RES ovarian
[11] = tested on: IGROV1 ovarian
[12] = tested on: TK-10 renal
[13] = tested on: OVCAR-5 ovarian
[14] = tested on: COLO 205 colon
[15] = tested on: KM12 colon
[16] = tested on: OVCAR-8 ovarian
[17] = tested on: SNB-19 CNS
[18] = tested on: SW-620 colon
[19] = tested on: RXF 393 renal
[20] = tested on: HS 578T breast
[21] = tested on: CCRF-CEM leukemia
[22] = tested on: EKVX NSCLC
[23] = tested on: UACC-62 melanoma
[24] = tested on: HL-60(TB) leukemia
[25] = tested on: A549 NSCLC
[26] = tested on: ACHN renal
[27] = tested on: SNB-75 CNS
[28] = tested on: MCF7 breast
[29] = tested on: BT-549 breast
[30] = tested on: SK-MEL-2 melanoma
[31] = tested on: MDA-MB-231 breast
[32] = tested on: RPMI-8226 leukemia
[33] = tested on: NCI-H460 lung
[34] = tested on: SN12C renal
[35] = tested on: MDA-MB-435
[36] = tested on: HCT-116 colon
[37] = tested on: OVCAR-4 ovarian
[38] = tested on: MOLT-4 leukemia
[39] = tested on: HOP-92 NSCLC
[40] = tested on: HT29 colon
[41] = tested on: HOP-62 NSCLC
[42] = tested on: HCC-2998 colon
[43] = tested on: MALME-3M melanoma
[44] = tested on: SF-268 CNS
[45] = tested on: SK-MEL-5 melanoma
[46] = tested on: SK-OV-3 ovarian
[47] = tested on: T-47D breast
[48] = tested on: DU-145 prostate
[49] = tested on: NCI-H226 lung
[50] = tested on: U251 CNS
[51] = tested on: NCI-H522 lung
[52] = tested on: UO-31 renal
[53] = tested on: NCI-H23 lung
[54] = tested on: 786-0 renal
[55] = tested on: HCT-15 colon
[56] = tested on: LOX IMVI melanoma
[57] = tested on: SF-539 CNS
[58] = tested on: K-562 leukemia
[59] = tested on: SR leukemia

C[C@]12CC[C@@H]3c4ccc(O)cc4CC[C@H]3[C@@H]1C/C(=C\c1ccncc1)[C@@H]2O
TGI [1]: > 100 µM
TGI [2]: 76.2 µM
TGI [3]: > 100 µM
TGI [4]: 17.7 µM
TGI [5]: > 100 µM
TGI [6]: 75.2 µM
TGI [7]: 30.9 µM
TGI [8]: 70.2 µM
TGI [9]: > 100 µM
TGI [10]: 33.5 µM
TGI [11]: 28.7 µM
TGI [12]: > 100 µM
TGI [13]: > 100 µM
TGI [14]: 19.8 µM
TGI [15]: 62.2 µM
TGI [16]: 31.7 µM
TGI [17]: > 100 µM
TGI [18]: > 100 µM
TGI [19]: 7.73 µM
TGI [20]: 20.9 µM
TGI [21]: > 100 µM
TGI [22]: > 100 µM
TGI [23]: 25.6 µM
TGI [24]: 44.9 µM
TGI [25]: > 100 µM
TGI [26]: 28.3 µM
TGI [27]: 23.6 µM
TGI [28]: 30.2 µM
TGI [29]: 14.2 µM
TGI [30]: 37.4 µM
TGI [31]: 41.2 µM
TGI [32]: 24.6 µM
TGI [33]: 68.2 µM
TGI [34]: > 100 µM
TGI [35]: > 100 µM
TGI [36]: > 100 µM
TGI [37]: > 100 µM
TGI [38]: 40.8 µM
TGI [39]: 32 µM
TGI [40]: > 100 µM
TGI [41]: 44.5 µM
TGI [42]: 53 µM
TGI [43]: 30.9 µM
TGI [44]: 55.5 µM
TGI [45]: 17.3 µM
TGI [46]: > 100 µM
TGI [47]: 13.8 µM
TGI [48]: > 100 µM
TGI [49]: 42.1 µM
TGI [50]: 39.6 µM
TGI [51]: 20.1 µM
TGI [52]: 52.9 µM
TGI [53]: 22.5 µM
TGI [54]: 80.9 µM
TGI [55]: 33.3 µM

COc1ccc(C(CC(=O)c2ccc3c(c2)OCO3)c2c(O)c3ccccc3oc2=O)cc1OC (configuration not stated)
TGI [1]: > 100 µM
TGI [2]: > 100 µM
TGI [4]: > 100 µM
TGI [5]: > 100 µM
TGI [6]: > 100 µM
TGI [7]: > 100 µM
TGI [8]: > 100 µM
TGI [9]: > 100 µM
TGI [10]: > 100 µM
TGI [11]: > 100 µM
TGI [12]: > 100 µM
TGI [13]: > 100 µM
TGI [14]: > 100 µM
TGI [15]: > 100 µM
TGI [16]: > 100 µM
TGI [17]: > 100 µM
TGI [18]: > 100 µM
TGI [19]: > 100 µM
TGI [20]: > 100 µM
TGI [21]: > 100 µM
TGI [22]: > 100 µM
TGI [23]: > 100 µM
TGI [24]: > 100 µM
TGI [25]: > 100 µM
TGI [56]: > 100 µM
TGI [26]: > 100 µM
TGI [27]: > 100 µM
TGI [28]: > 100 µM
TGI [29]: > 100 µM
TGI [30]: > 100 µM
TGI [57]: > 100 µM
TGI [31]: > 100 µM
TGI [32]: > 100 µM
TGI [33]: > 100 µM
TGI [34]: > 100 µM
TGI [35]: > 100 µM
TGI [36]: > 100 µM
TGI [37]: > 100 µM
TGI [38]: > 100 µM
TGI [39]: > 100 µM
TGI [58]: > 100 µM
TGI [40]: > 100 µM
TGI [41]: > 100 µM
TGI [42]: > 100 µM
TGI [43]: > 100 µM
TGI [44]: > 100 µM
TGI [45]: > 100 µM
TGI [46]: > 100 µM
TGI [47]: > 100 µM
TGI [48]: > 100 µM
TGI [49]: > 100 µM
TGI [50]: > 100 µM
TGI [51]: > 100 µM
TGI [52]: > 100 µM
TGI [53]: > 100 µM
TGI [54]: > 100 µM
TGI [55]: > 100 µM

COc1ccc(/C=C2\C[C@H]3[C@@H]4CCC5=C/C(=N/O)CC[C@]5(C)[C@H]4CC[C@]3(C)\C2=N\O)cc1OC
TGI [1]: > 100 µM
TGI [2]: > 100 µM
TGI [3]: > 100 µM
TGI [4]: > 100 µM
TGI [5]: > 100 µM
TGI [6]: > 100 µM
TGI [7]: > 100 µM
TGI [8]: 88.4 µM
TGI [9]: > 100 µM
TGI [10]: > 100 µM
TGI [11]: > 100 µM
TGI [13]: > 100 µM
TGI [59]: > 100 µM
TGI [15]: > 100 µM
TGI [16]: > 100 µM
TGI [17]: > 100 µM
TGI [18]: > 100 µM
TGI [19]: > 100 µM
TGI [20]: > 100 µM
TGI [21]: > 100 µM
TGI [22]: 32 µM
TGI [23]: > 100 µM
TGI [24]: 76.8 µM
TGI [25]: > 100 µM
TGI [56]: > 100 µM
TGI [26]: > 100 µM
TGI [27]: > 100 µM
TGI [28]: > 100 µM
TGI [29]: > 100 µM
TGI [30]: 54.5 µM
TGI [57]: > 100 µM
TGI [32]: 60.3 µM
TGI [33]: > 100 µM
TGI [34]: > 100 µM
TGI [35]: > 100 µM
TGI [36]: > 100 µM
TGI [37]: > 100 µM
TGI [38]: 94.3 µM
TGI [39]: > 100 µM
TGI [58]: > 100 µM
TGI [40]: > 100 µM
TGI [41]: > 100 µM
TGI [42]: > 100 µM
TGI [43]: > 100 µM
TGI [44]: > 100 µM
TGI [45]: 14.9 µM
TGI [46]: > 100 µM
TGI [47]: > 100 µM
TGI [48]: > 100 µM
TGI [49]: > 100 µM
TGI [51]: > 100 µM
TGI [52]: > 100 µM
TGI [53]: > 100 µM
TGI [54]: > 100 µM
TGI [55]: > 100 µM

Source: PubChem BioAssay (NCI)
